Laboratory results published in patent USRE47689E1, “Compounds for treating spinal muscular atrophy” (PTC Therapeutics, Inc., priority 2011, dated 2019).

What was measured:
[1] = tested on: Smn protein; assay: Smn protein assay in tissues of adult C/C-allele SMA mice; type: in vivo, mouse; conditions: brain, spinal cord, muscle, 10 mg/kg orally twice a day for 10 days
Method: This Smn protein assay compares tissues from test compound treated mice with those from DMSO vehicle treated mice to determine the increase in levels of Smn protein produced from the human SMN2 gene.
Protocol. The tissue samples in Safe-Lock tubes are weighed and the volume of RIPA buffer containing the protease inhibitor cocktail is added based on the weight to volume ratios for each type of tissue: Brain (50 mg/mL), Muscle (50 mg/mL) and Spinal Cord (25 mg/mL).
Tissues are homogenized using the TissueLyzer by bead milling. 5 mm stainless steel beads are added to the sample and shaken vigorously for 5 minutes at 30 Hz in the TissueLyzer. The samples are then centrifuged for 20 minutes at 14,000×g in a microcentrifuge and the homogenates transferred to the PCR plate. The homogenates are diluted in RIPA buffer to approximately 1 mg/mL for HTRF and approximately 0.5 mg/mL for total protein measurement using the BCA protein assay. For the SMN HTRF assay, 35 μL of the tissue homogenate is transferred to a 384-well plate containing 5 μL of the antibody solution (1:100 dilution of each of the anti-SMNd2 and anti-SMN Kryptate in reconstitution buffer). To provide a control signal, three (3) wells in the plate contain only RIPA Lysis Buffer and, thus, serve as Blank control wells. The plate is centrifuged for 1 minute to bring the solution to the bottom of the wells and then incubated overnight at room temperature. Fluorescence for each well of the plate at 665 nm and 620 nm is measured on an EnVision multilabel plate reader (Perkin-Elmer). The total protein in the tissue homogenate is measured using the BCA assay according to the manufacturer's protocol.
The normalized fluorescence signal is calculated for each sample, Blank and vehicle control well by dividing the signal at 665 nm by the signal at 620 nm. Normalizing the signal accounts for possible fluorescence quenching due to the matrix effect of the tissue homogenate. The ΔF value (a measurement of Smn protein abundance) for each tissue sample well is calculated by subtracting the normalized average fluorescence for the Blank control wells from the normalized fluorescence for each tissue sample well and then dividing this difference by the normalized average fluorescence for the Blank control wells. The ΔF value for each tissue sample well is divided by the total protein quantity (determined using the BCA assay) for that tissue sample. The change in Smn protein abundance for each tissue sample relative to the vehicle control is calculated as the percent difference in the ΔF value of the tissue sample in the presence of the test compound and the averaged ΔF value of the vehicle control signal divided by the averaged ΔF value of the vehicle control signal. […]

[2] = tested on: SMA Δ7 homozygous knockout mice; assay: Survival of neonatal Δ7 SMA mice; type: in vivo, mouse; conditions: IP QD from PND 3, then orally BID until study end, compared to vehicle
Method: The change in the number of surviving mice over time is used to determine whether treatment with a test compound improves survival.
Protocol. SMA Δ7 homozygous knockout mice are dosed intraperitoneally (IP) with test compound or vehicle (100% DMSO) once per day (QD) from postnatal day (PND) 3 until the dose regimen is switched to an oral dose twice per day (BID) in 0.5% hydroxypropylmethyl cellulose (HPMC) with 0.1% Tween-80 at a dose 3.16-fold higher than the dose used for IP. The number of surviving mice in each group is recorded every day and plotted as a percent of total number of mice. Tissues of SMA Δ7 and age-matched heterozygous mice are collected for the measurement of Smn protein levels and processed as detailed in Example 10. The total protein normalized Smn protein levels measured in the tissues are plotted as a percent of those in the age-matched heterozygous mice tissues, with the heterozygous levels represented as 100 percent. The level of Smn protein in the test compound treated mice tissue relative to that in heterozygous mice tissue is indicated as a percent value above each bar in the graph.

Structure (SMILES) | Smn protein levels in target tissues compared with heterozygous mice [1] | total protein normalized Smn level relative to the vehicle group [1] | survival [2]
CC(C)NCCc1ccc2cc(-c3nc4c(Cl)cccc4s3)c(=O)oc2c1 [Cpd 35, 3-(4-chloro-1,3-benzothiazol-2-yl)-7-[2-(propan-2-ylamino)ethyl]-2H-chromen-2-one] | above those observed in the corresponding tissues of the heterozygous mice | increased | improved compared to vehicle treated mice
CCN1CCN(c2ccc3cc(-c4cn5cc(C)nc(C)c5n4)c(=O)oc3c2)C[C@@H]1C [Cpd 626, 3-(6,8-dimethylimidazo[1,2-a]pyrazin-2-yl)-7-[(3S)-4-ethyl-3-methylpiperazin-1-yl]-2H-chromen-2-one] | above those observed in the corresponding tissues of the heterozygous mice | increased | improved compared to vehicle treated mice
